Reference: US6586402B1, “LH-RH peptide analogues, their uses and pharmaceutical compositions containing them” (Laboratoire Theramex, priority 1997, dated 2003)
Entries after “also recorded” stand apart in the source; their conditions may differ. Square brackets hold non-standard residues; d marks the D form. Peptide text beside a SMILES is read from it. 1Nal = N[C@@H](Cc1cccc2ccccc12)C(=O)O; 2Nal = N[C@@H](Cc1ccc2ccccc2c1)C(=O)O; Bta = N[C@@H](Cc1csc2ccccc12)C(=O)O; tBuAla = CC(C)(C)C[C@H](N)C(=O)O; d3Pal = N[C@H](Cc1cccnc1)C(=O)O; d4Pal = N[C@H](Cc1ccncc1)C(=O)O; pGlu = O=C1CC[C@@H](C(=O)O)N1

Legend:
LH-RH receptors = target: T1, LH-RH receptors (Rattus norvegicus, UniProt P30969); assay: Stimulation of testosterone secretion in adult male rats after subcutaneous injection (agonist activity in vivo); set-up: exert an agonist activity upon the LH-RH receptors in vivo; from tissue; host or cells: whole animal, adult male Sprague-Dawley rats; species or system Sprague-Dawley rats; conditions: for Total plasma testosterone: 10 ng/kg subcutaneous in PBS, blood two hours later, male Sprague-Dawley rats; for agonistic potency in words: comment on Tables 2 and 3
T1 sequence (P30969 1-327): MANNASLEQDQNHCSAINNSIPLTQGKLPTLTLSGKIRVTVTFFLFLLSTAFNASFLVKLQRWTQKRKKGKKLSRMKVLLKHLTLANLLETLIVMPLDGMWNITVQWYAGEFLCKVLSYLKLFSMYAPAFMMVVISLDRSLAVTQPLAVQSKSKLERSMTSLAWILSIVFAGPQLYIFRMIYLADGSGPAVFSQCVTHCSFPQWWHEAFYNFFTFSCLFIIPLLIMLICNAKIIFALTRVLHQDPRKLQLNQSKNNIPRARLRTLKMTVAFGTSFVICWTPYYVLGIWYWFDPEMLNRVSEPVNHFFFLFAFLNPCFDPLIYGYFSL
Method: The peptides according to the general formula (IIa) exert an agonist activity upon the LH-RH receptors in vivo, resulting in the stimulation of LH secretion by the pituitary, which, in males, stimulates the secretion of testosterone by the testis.
Two hours later, blood samples were drawn for total plasma testosterone determination by direct radioimmunoassay (Immunotech).
At this intermediate dose of 10 ng/kg, several examples with Npg^7 or Ada^7 in place of Leu^7 according to the invention were screened for agonistic activity (Tables 2 and 3). When available from Bachem (France) or Sigma (France), the corresponding standard agonist with Leu^7 was tested for comparison.

[1] = target: LH-RH receptors (membrane fractions of pituitaries from female Sprague Dawley rats) (rat (female Sprague Dawley)) (UniProt P30969); assay: competition with [125I]-buserelin, rat pituitary membranes; Ki by Cheng-Prusoff

Compound: CCNC(=O)[C@@H]1CCCN1C(=O)[C@H](CCCN=C(N)N)NC(=O)[C@H](CC(C)C)NC(=O)[C@@H](Cc1c[nH]c2ccccc12)NC(=O)[C@H](Cc1ccc(O)cc1)NC(=O)[C@H](CO)NC(=O)[C@H](Cc1c[nH]c2ccccc12)NC(=O)[C@H](Cc1cnc[nH]1)NC(=O)[C@@H]1CCC(=O)N1 [Deslorelin, reference compound]
- Total plasma testosterone (LH-RH receptors; Table 2, vehicle 2.7 ± 0.3): 11.8 ± 3.5 nmol/L

Compound: CC(C)(C)C[C@H](NC(=O)CNC(=O)[C@H](Cc1ccc(O)cc1)NC(=O)[C@H](CO)NC(=O)[C@H](Cc1c[nH]c2ccccc12)NC(=O)[C@H](Cc1c[nH]cn1)NC(=O)[C@@H]1CCC(=O)N1)C(=O)N[C@@H](CCCNC(=N)N)C(=O)N1CCC[C@H]1C(=O)NCC(N)=O [Example 1, pGlu-His-Trp-Ser-Tyr-Gly-Npg-Arg-Pro-Gly-NH2]
- activity in stimulating testosterone secretion relative to LH-RH (LH-RH receptors; FIG. 1, various doses s.c., 8 animals per point): a little more than twice as active as LH-RH

Compound: CC(C)C[C@@H](NC(=O)[C@H](Cc1ccc(O)cc1)NC(=O)[C@H](CO)NC(=O)[C@H](Cc1c[nH]c2ccccc12)NC(=O)[C@H](Cc1c[nH]cn1)NC(=O)[C@@H]1CCC(=O)N1)C(=O)N[C@@H](CC(C)(C)C)C(=O)N[C@@H](CCCNC(=N)N)C(=O)N1CCC[C@H]1C(=O)NCC(N)=O [Example 5, pGlu-His-Trp-Ser-Tyr-D-Leu-Npg-Arg-Pro-Gly-NH2] ([pGlu]HWSY[dL][tBuAla]RPG-NH2)
- agonistic potency in words (LH-RH receptors; 10 ng/kg s.c.): range of potency similar to that of leuprorelin or tryptorelin
- Total plasma testosterone (LH-RH receptors; Table 2, vehicle 2.7 ± 0.3): 21.2 ± 6.6 nmol/L

Compound: CC(C)(C)C[C@H](NC(=O)[C@@H](Cc1c[nH]c2ccccc12)NC(=O)[C@H](Cc1ccc(O)cc1)NC(=O)[C@H](CO)NC(=O)[C@H](Cc1c[nH]c2ccccc12)NC(=O)[C@H](Cc1c[nH]cn1)NC(=O)[C@@H]1CCC(=O)N1)C(=O)N[C@@H](CCCNC(=N)N)C(=O)N1CCC[C@H]1C(=O)NCC(N)=O [Example 11, pGlu-His-Trp-Ser-Tyr-D-Trp-Npg-Arg-Pro-Gly-NH2] ([pGlu]HWSY[dW][tBuAla]RPG-NH2)
- activity in stimulating testosterone secretion relative to the Leu^7 counterpart (LH-RH receptors; 10 ng/kg s.c.): a little more than twice as active
- agonistic potency in words (LH-RH receptors; 10 ng/kg s.c.): Npg^7 led to more potent agonists than Ada^7
- Total plasma testosterone (LH-RH receptors; Table 2, vehicle 2.7 ± 0.3): 30.8 ± 3.5 nmol/L

Compound: CC(C)(C)C[C@H](NC(=O)[C@@H](Cc1cccnc1)NC(=O)[C@H](Cc1ccc(O)cc1)NC(=O)[C@H](CO)NC(=O)[C@H](Cc1c[nH]c2ccccc12)NC(=O)[C@H](Cc1c[nH]cn1)NC(=O)[C@@H]1CCC(=O)N1)C(=O)N[C@@H](CCCNC(=N)N)C(=O)N1CCC[C@H]1C(=O)NCC(N)=O [Example 20, pGlu-His-Trp-Ser-Tyr-D-Pal-Npg-Arg-Pro-Gly-NH2] ([pGlu]HWSY[d3Pal][tBuAla]RPG-NH2)
- agonistic potency in words (LH-RH receptors; 10 ng/kg s.c.): range of potency similar to that of leuprorelin or tryptorelin
- Total plasma testosterone (LH-RH receptors; Table 3, vehicle 4.3 ± 1.2): 24.9 ± 5.0 nmol/L

Compound: CC(C)(C)C[C@H](NC(=O)[C@@H](Cc1ccncc1)NC(=O)[C@H](Cc1ccc(O)cc1)NC(=O)[C@H](CO)NC(=O)[C@H](Cc1c[nH]c2ccccc12)NC(=O)[C@H](Cc1c[nH]cn1)NC(=O)[C@@H]1CCC(=O)N1)C(=O)N[C@@H](CCCNC(=N)N)C(=O)N1CCC[C@H]1C(=O)NCC(N)=O [Example 21, pGlu-His-Trp-Ser-Tyr-D-4Pal-Npg-Arg-Pro-Gly-NH2] ([pGlu]HWSY[d4Pal][tBuAla]RPG-NH2)
- agonistic potency in words (LH-RH receptors; 10 ng/kg s.c.): range of potency similar to that of leuprorelin or tryptorelin
- Total plasma testosterone (LH-RH receptors; Table 3, vehicle 4.3 ± 1.2): 32.4 ± 7.0 nmol/L

Compound: CCNC(=O)[C@@H]1CCCN1C(=O)[C@H](CCCNC(=N)N)NC(=O)[C@H](CC(C)(C)C)N(C)C(=O)[C@@H](CC(C)C)NC(=O)[C@H](Cc1ccc(O)cc1)NC(=O)[C@H](CO)NC(=O)[C@H](Cc1c[nH]c2ccccc12)NC(=O)[C@H](Cc1c[nH]cn1)NC(=O)[C@@H]1CCC(=O)N1 [Example 23, pGlu-His-Trp-Ser-Tyr-D-Leu-MeNpg-Arg-Pro-NEt]
- agonistic potency in words (LH-RH receptors; 10 ng/kg s.c.): very strong agonistic activity; also recorded: more potent LH-RH agonists than current therapeutic LH-RH analogues
- Total plasma testosterone (LH-RH receptors; Table 3, vehicle 4.3 ± 1.2): 49.4 ± 4.6 nmol/L

Compound: CCNC(=O)[C@@H]1CCCN1C(=O)[C@H](CCCNC(=N)N)NC(=O)[C@H](CC(C)(C)C)NC(=O)[C@@H](CC(C)C)NC(=O)[C@H](Cc1ccc(O)cc1)NC(=O)[C@H](CO)NC(=O)[C@H](Cc1cccc2ccccc12)NC(=O)[C@H](Cc1c[nH]cn1)NC(=O)[C@@H]1CCC(=O)N1 [Example 24, pGlu-His-1Nal-Ser-Tyr-D-Leu-Npg-Arg-Pro-NEt] ([pGlu]H[1Nal]SY[dL][tBuAla]RP-NHEt)
- Total plasma testosterone (LH-RH receptors; Table 3, vehicle 4.3 ± 1.2): 14.3 ± 4.3 nmol/L

Compound: CCNC(=O)[C@@H]1CCCN1C(=O)[C@H](CCCNC(=N)N)NC(=O)[C@H](CC(C)(C)C)NC(=O)[C@@H](CC(C)C)NC(=O)[C@H](Cc1ccc(O)cc1)NC(=O)[C@H](CO)NC(=O)[C@H](Cc1ccc2ccccc2c1)NC(=O)[C@H](Cc1c[nH]cn1)NC(=O)[C@@H]1CCC(=O)N1 [Example 25, pGlu-His-2Nal-Ser-Tyr-D-Leu-Npg-Arg-Pro-NEt] ([pGlu]H[2Nal]SY[dL][tBuAla]RP-NHEt)
- agonistic potency in words (LH-RH receptors; 10 ng/kg s.c.): range of potency similar to that of leuprorelin or tryptorelin
- Total plasma testosterone (LH-RH receptors; Table 3, vehicle 4.3 ± 1.2): 27.3 ± 6.9 nmol/L

Compound: CCNC(=O)[C@@H]1CCCN1C(=O)[C@H](CCCNC(=N)N)NC(=O)[C@H](CC(C)(C)C)NC(=O)[C@@H](CC(C)C)NC(=O)[C@H](Cc1ccc(O)cc1)NC(=O)[C@H](CO)NC(=O)[C@H](Cc1csc2ccccc12)NC(=O)[C@H](Cc1c[nH]cn1)NC(=O)[C@@H]1CCC(=O)N1 [Example 26, pGlu-His-Bal-Ser-Tyr-D-Leu-Npg-Arg-Pro-NEt] ([pGlu]H[Bta]SY[dL][tBuAla]RP-NHEt)
- Total plasma testosterone (LH-RH receptors; Table 3, vehicle 4.3 ± 1.2): 12.2 ± 2.7 nmol/L

Compound: CCNC(=O)[C@@H]1CCCN1C(=O)[C@H](CCCNC(=N)N)NC(=O)[C@H](CC(C)C)NC(=O)[C@@H](CC(C)C)NC(=O)[C@H](Cc1ccc(O)cc1)NC(=O)[C@H](CO)NC(=O)[C@H](Cc1c[nH]c2ccccc12)NC(=O)[C@H](Cc1c[nH]cn1)NC(=O)[C@@H]1CCC(=O)N1 [Leuprorelin, reference compound]
- Total plasma testosterone (LH-RH receptors; Table 2, vehicle 2.7 ± 0.3): 33.5 ± 3.5 nmol/L

Compound: CC(C)C[C@H](NC(=O)[C@@H](Cc1c[nH]c2ccccc12)NC(=O)[C@H](Cc1ccc(O)cc1)NC(=O)[C@H](CO)NC(=O)[C@H](Cc1c[nH]c2ccccc12)NC(=O)[C@H](Cc1c[nH]cn1)NC(=O)[C@@H]1CCC(=O)N1)C(=O)N[C@@H](CCCNC(=N)N)C(=O)N1CCC[C@H]1C(=O)NCC(N)=O [Tryptorelin, reference compound]
- Total plasma testosterone (LH-RH receptors; Table 2, vehicle 2.7 ± 0.3): 20.3 ± 2.5 nmol/L

Compound: CCNC(=O)[C@@H]1CCCN1C(=O)[C@H](CCCNC(=N)N)NC(=O)[C@H](CC(C)C)NC(=O)[C@@H](C)NC(=O)[C@H](Cc1ccc(O)cc1)NC(=O)[C@H](CO)NC(=O)[C@H](Cc1c[nH]c2ccccc12)NC(=O)[C@H](Cc1c[nH]cn1)NC(=O)[C@@H]1CCC(=O)N1 [[D-Ala^6, Pro^9NEt]-LH-RH, reference compound]
- Total plasma testosterone (LH-RH receptors; Table 2, vehicle 2.7 ± 0.3): 30.6 ± 7.2 nmol/L

Compound: CC(C)C[C@H](NC(=O)[C@@H](C)NC(=O)[C@H](Cc1ccc(O)cc1)NC(=O)[C@H](CO)NC(=O)[C@H](Cc1c[nH]c2ccccc12)NC(=O)[C@H](Cc1c[nH]cn1)NC(=O)[C@@H]1CCC(=O)N1)C(=O)N[C@@H](CCCNC(=N)N)C(=O)N1CCC[C@H]1C(=O)NCC(N)=O [[D-Ala^6]-LH-RH, reference compound]
- Total plasma testosterone (LH-RH receptors; Table 2, vehicle 2.7 ± 0.3): 6.4 ± 1.9 nmol/L

Compound: CCNC(=O)[C@@H]1CCCN1C(=O)[C@H](CCCNC(=N)N)NC(=O)[C@H](CC(C)C)NC(=O)[C@@H](Cc1ccccc1)NC(=O)[C@H](Cc1ccc(O)cc1)NC(=O)[C@H](CO)NC(=O)[C@H](Cc1c[nH]c2ccccc12)NC(=O)[C@H](Cc1c[nH]cn1)NC(=O)[C@@H]1CCC(=O)N1 [[D-Phe^6, Pro^9NEt]-LH-RH, reference compound]
- Total plasma testosterone (LH-RH receptors; Table 2, vehicle 2.7 ± 0.3): 16.7 ± 4.3 nmol/L

Compound: AcD-Nal-D-pClPhe-D-Pal-Ser-NicLys-D-NicLys-Npg-IprLys-Pro-D-Ala-NH2 (peptide)
- pKi [1]: 9.23 -log Ki

Compound: AcD-Nal-D-pClPhe-D-Pal-Ser-Tyr-D-Cit-Npg-IprLys-Pro-D-Ala-NH2 (peptide)
- pKi [1]: 9.72 -log Ki

Compound: AcD-Nal-D-pClPhe-D-Pal-Ser-Tyr-D-HCit-Npg-IprLys-Pro-D-Ala-NH2 (peptide)
- pKi [1]: 10.1 -log Ki

Compound: Goserelin (peptide)
- pKi [1]: 8.58 -log Ki

Compound: pGlu-His-Trp-Ser-Tyr-D-Ala-Ada-Arg-Pro-NEt [Example 28]
- agonistic potency in words (LH-RH receptors; 10 ng/kg s.c.): the Ada^7 replacement was more favorable than Npg^7; also recorded: more potent LH-RH agonists than current therapeutic LH-RH analogues
- Total plasma testosterone (LH-RH receptors; Table 2, vehicle 2.7 ± 0.3): 44.9 ± 6.0 nmol/L

Compound: pGlu-His-Trp-Ser-Tyr-D-Ala-Npg-Arg-Pro-NEt (peptide)
- pKi [1]: 10 -log Ki

Compound: pGlu-His-Trp-Ser-Tyr-D-Leu-Ada-Arg-Pro-NEt [Example 29]
- Total plasma testosterone (LH-RH receptors; Table 2, vehicle 2.7 ± 0.3): 36.2 ± 4.5 nmol/L

Compound: pGlu-His-Trp-Ser-Tyr-D-Phe-Ada-Arg-Pro-NEt [Example 27]
- agonistic potency in words (LH-RH receptors; 10 ng/kg s.c.): the Ada^7 replacement was more favorable than Npg^7
- Total plasma testosterone (LH-RH receptors; Table 2, vehicle 2.7 ± 0.3): 28.0 ± 4.1 nmol/L

Compound: pGlu-His-Trp-Ser-Tyr-D-Trp-Ada-Arg-Pro-Gly-NH2 [Example 30]
- Total plasma testosterone (LH-RH receptors; Table 2, vehicle 2.7 ± 0.3): 24.8 ± 4.1 nmol/L
